Data set [1] relates to AMPK. As to the kind of experiment: Characterization of AMPK activation by Western blot in PC-3 and LNCaP cells (Dorsomorphin, siRNA). In kind it is cell-based, human. As to conditions: PC-3 and LNCaP cells, 5 μM Dorsomorphin + 25 µM 8c, 1 h and 24 h. Here is the method:
To further confirm the compound 8c-induced activation of AMPK, PC-3 and LNCaP cells were incubated with the compound for 1 h and 24 hours in the presence of the AMPK inhibitor Dorsomorphin. […] Accordingly, ACC phosphorylation was increased at 1 h and 24 h and prevented by Dorsomorphin in both cell lines. AMPK inhibits mTORC1 through phosphorylation of Raptor on two well-conserved serine residues (ser722 and ser792) inducing cell-cycle arrest in response to an energy stress. To further support the 8c-induced AMPK activation, we determined Raptor phosphorylation on Ser792 in prostate cells.
Figure 5 AMPK activation by compound 8c in prostate cancer cells. (A) PC-3 and LNCaP cells were treated with vehicle, 25 µM compound 8c, 25 µM compound 8c + 5 μM Dorsomorphin (8c + D) or 5 μM Dorsomorphin (D), for 1 hour or 24 hours and levels of the phosphorylated AMPK (pAMPK), phosphorylated ACC (pACC), phosphorylated Raptor (pRaptor) forms and HIF1α were determined by Western blot. Upper panel, representative Western blot of three different experiments. β-tubulin (β-Tub) serves as a loading control. Lower panel, densitometric analyses of bands represented as the mean of the ratio pAMPK/AMPK or pACC/ACC. (B) Cell viability monitored by MTT assay in PC-3 and LNCaP cells treated with vehicle, 25 µM and 50 μM compound 8c alone or in the presence of 5 μM Dorsomorphin or transfected with control siRNA (siC) or α1AMPK-selective siRNA (siAMPK). (C) LNCaP cells were treated with vehicle, 25 µM compound 8c, 25 µM compound 8c + 5 μM Dorsomorphin (8c + D) or 5 μM Dorsomorphin (D), for 24 hours and levels of Androgen Receptor (AR), Prostate specific antigen (PSA) and Prostate specific membrane antigen (PSMA) were determined by Western blot.Values were normalized with the control and represent the mean ± SD of at least three independent experiments. *p < 0.05 and **p < 0.01 compared to control and ^#p < 0.05 and ^##p < 0.01 compared with 8c-treated group by the Student’s t-test.
AMPK is a heterotrimeric protein composed by catalytic (α) and regulatory (β and γ) subunits. In mammals, different isoforms of α, β and γ subunits can associate to produce up to 12 AMPK different combinations. […]
Figure 6 Phosphorylation of AMPK and ACC in prostate cells transfected with selective AMPKα1 or AMPKα2 siRNA. […] Levels of the phosphorylated AMPK (pAMPK), phosphorylated ACC (pACC) and their total forms were determined by Western blot. […]
Cells were lysed in Lysis buffer (50 mM Tris pH 7.4, 0.8 M NaCl, 5 mM MgCl2, 0.1% Triton X-100) containing Protease Inhibitor and Phosphatase inhibitor Cocktails (Roche, Basel, Switzerland). Protein concentrations were measured by BioRad™ protein assay kit (Richmond, CA, USA). […]
On the technique in general: In western blotting, separated proteins are transferred to a membrane and probed.

In data set [2] the test system is AMPK. As to the kind of experiment: AMPK and ACC phosphorylation by Western blot in LNCaP cells. The class given is cell-based, human. Conditions: 25 µM, 1 hour. How it is done:
(§1) Figure 2 Effect of 2-oxindole fluorinated derivatives on AMPK activity in prostate cancer cells. (A) PC-3, DU145 and LNCaP cells were treated with 25 µM of the selected 2-oxindole fluorinated derivatives for 1 hour. Levels of the phosphorylated AMPK (pAMPK), phosphorylated ACC (pACC) and their total forms were determined by Western blot. Upper panel, a representative Western blot of three different experiments. β-tubulin (β-Tub) serves as a loading control. […] Lower panels, densitometric analyses of bands represented as the mean of the ratio pAMPK/AMPK or pACC/ACC ± SD of three different experiments. *p < 0.05 compared with the controls by one-way ANOVA followed by Fisher’s LSD test; ^#p < 0.05 compared with 2-oxindole fluorinated derivates or with the AMPK activators AMP or A769662 by one-way ANOVA followed by Tukey test.
Similar results were obtained although AMPK stimulation by compound 8c was not so strong (Fig. 2A). […]
Cells were lysed in Lysis buffer (50 mM Tris pH 7.4, 0.8 M NaCl, 5 mM MgCl2, 0.1% Triton X-100) containing Protease Inhibitor and Phosphatase inhibitor Cocktails (Roche, Basel, Switzerland). Protein concentrations were measured by BioRad™ protein assay kit (Richmond, CA, USA). […] Films were analyzed by densitometry. […]

For data set [3], the target named is T1, AMPK (Homo sapiens, UniProt Q13131).
T1 construct: endogenous in cells; host or cells: PC-3, DU145, LNCaP
T1 sequence (Q13131 whole entry): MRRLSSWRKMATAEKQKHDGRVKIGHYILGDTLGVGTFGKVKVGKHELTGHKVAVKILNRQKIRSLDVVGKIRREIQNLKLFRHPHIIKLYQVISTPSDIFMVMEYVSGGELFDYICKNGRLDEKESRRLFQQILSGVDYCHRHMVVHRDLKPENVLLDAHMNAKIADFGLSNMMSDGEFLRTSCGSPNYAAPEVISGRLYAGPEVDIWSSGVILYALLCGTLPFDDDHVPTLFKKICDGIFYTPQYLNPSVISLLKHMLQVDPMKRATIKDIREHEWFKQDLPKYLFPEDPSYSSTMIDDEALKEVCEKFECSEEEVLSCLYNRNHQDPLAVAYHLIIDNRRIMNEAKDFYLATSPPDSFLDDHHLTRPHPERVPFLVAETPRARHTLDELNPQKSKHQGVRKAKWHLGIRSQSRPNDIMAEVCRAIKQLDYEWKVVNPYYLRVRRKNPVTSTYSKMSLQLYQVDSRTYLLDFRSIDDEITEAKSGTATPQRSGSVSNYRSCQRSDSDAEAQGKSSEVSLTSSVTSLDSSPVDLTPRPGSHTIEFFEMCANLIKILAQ
T1 sequence (Q9Y478 2-270 partner limits assumed): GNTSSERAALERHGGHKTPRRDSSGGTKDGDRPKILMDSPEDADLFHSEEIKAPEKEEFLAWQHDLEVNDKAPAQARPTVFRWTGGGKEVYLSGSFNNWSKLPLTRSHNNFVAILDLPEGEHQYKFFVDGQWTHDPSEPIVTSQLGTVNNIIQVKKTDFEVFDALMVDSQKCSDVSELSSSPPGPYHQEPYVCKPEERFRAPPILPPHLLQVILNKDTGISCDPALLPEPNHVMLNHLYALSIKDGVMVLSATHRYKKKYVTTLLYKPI
T1 sequence (P54619 whole entry partner): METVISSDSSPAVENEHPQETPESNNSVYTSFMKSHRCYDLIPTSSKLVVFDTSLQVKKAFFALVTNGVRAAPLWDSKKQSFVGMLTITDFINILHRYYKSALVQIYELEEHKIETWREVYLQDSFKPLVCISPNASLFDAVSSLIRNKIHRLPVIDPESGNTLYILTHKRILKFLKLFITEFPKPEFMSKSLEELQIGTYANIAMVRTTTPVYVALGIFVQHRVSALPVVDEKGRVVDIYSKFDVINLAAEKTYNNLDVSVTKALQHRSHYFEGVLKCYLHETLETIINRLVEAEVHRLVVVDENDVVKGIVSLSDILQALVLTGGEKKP
Put plainly: AMPK and ACC phosphorylation by Western blot in PC-3 cells. In kind it is cell-based. As to conditions: 25 µM, 1 hour; for Thr172 phosphorylation of AMPK (pAMPK/AMPK): compared to controls.
From the text: To investigate the effect of the compounds on AMPK activity at cellular level, compounds 8a-c and 9a-b were selected to perform AMPK phosphorylation assays in human prostate cancer cell lines. We use the PC-3 cell line as it is androgen-resistant and represents the advanced and aggressive stage of prostate cancer. […] AMPK inhibits lipogenic pathway through phosphorylation of its well-known substrate acetyl-CoA carboxylase (ACC). To confirm the modulation of AMPK activity in prostate cells by the compounds, we determined levels of phosphorylated ACC in 2-oxindole fluorinated derivatives-treated cells. […] It is worthy to note that the highest ACC phosphorylation was obtained with compound 8c denoting a powerful activity of this compound in PC-3 cells.
as §1
(§2) Human prostate cancer epithelial PC-3, DU145 and LNCaP and human prostate normal RWPE-1 cells were purchased from American Type Culture Collection (ATCC CRL-1435 CRL-1740 and CRL 11609 respectively) (Rockville, MD, USA). The human prostate normal PNT2 cell line was purchased to ECACC (European Collection of Cell cultures, Salisbury, SP4 0JG, UK). Cells were routinely grown in RPMI 1640 medium supplemented with 100 IU/ml penicillin G sodium, 100 µg/ml streptomycin sulfate, 0.25 µg/ml amphotericin B (Invitrogen, Paisley, UK) and 10% fetal calf serum. Cells were used at passages between 10–20. For treatment experiments, cells were plated and grown over night, the medium was then replaced with serum-free RPMI 1640 for 24 hours and then incubated with different doses of the compounds for the indicated times.
Cells were lysed in Lysis buffer (50 mM Tris pH 7.4, 0.8 M NaCl, 5 mM MgCl2, 0.1% Triton X-100) containing Protease Inhibitor and Phosphatase inhibitor Cocktails (Roche, Basel, Switzerland). Protein concentrations were measured by BioRad™ protein assay kit (Richmond, CA, USA). Equal amount of protein (20 μg) from each sample was separated on 8% SDS–PAGE gels and transferred to PVDF membranes (BioRad). The membranes were blocked with blocking buffer (1× TBS, 0.1% Tween 20 with 5% w/v fat-free dry milk), washed and incubated with primary antibodies at 4 °C for 12 h. The membranes were subsequently washed with TBS-T (1× TBS and 0.1% Tween 20) and incubated with horseradish peroxidase-conjugated anti-mouse or anti-rabbit IgG antibodies (Sigma, St Louis, MO, USA) at room temperature for 1 h. The immune complex was visualized with an ECL system (Cell Signaling Technology). Films were analyzed by densitometry. The anti-pAMPKα1-thr172, pACC-ser79, pP53, P21, pRaptor and the antibodies against the corresponding total forms were obtained from Cell Signaling Technology (Danvers, MA, USA). The anti-caspase 3 and anti-procaspase 3 were from Santa Cruz Biotechnology (Dallas, Texas, USA). The anti-HIF1A was from Novus Biologicals LLC (Littleton, CO, USA). The anti-Cyclin D1 antibody was obtained from ThermoFisher (Alcobendas, Madrid, Spain). All the other chemicals were obtained from Sigma (St. Louis, MO, USA).

The next data set has as its system PC-3 cells. Put plainly: Cell viability by MTT assay, PC-3. In kind it is cell-based, human. As to conditions: PC-3, 50 μM. Here is the method: (§3) Figure 3 Comparison of the effect of 2-oxindole fluorinated derivatives on the proliferation of human prostate cancer cells. (A) Normal (PTN2 and RWPE-1) and cancer (PC3,DU145 and LNCaP) prostate cells were treated with different doses of the compounds for 24 hours and cell viability was monitored by MTT assay. […] (C) PC-3, DU145 and LNCaP cells were treated with 25 µM of compound 8c for different times. Values were normalized with the control and represent the mean ± SD of at least three independent experiments. *p < 0.05 and **p < 0.01 compared to control by the Student’s - test.
as §2
(§4) Cell viability was determined by 3-(4,5-dimethylthiazol-2-yl)-2,5-diphenyltetrazolium bromide (MTT) (Sigma-Aldrich) method. In brief, a total of 5000 cells/well were seeded into 12-well plate in a final volume of 1 mL. After treatments, 20 µl MTT solution (5 mg/ml in PBS) was added to the medium and cells were incubated at 37 °C for 4 h. Then, the supernatant was discarded and isopropanol was added to dissolve the formazan crystals. Treatments were carried out in triplicate. The optical density in each well was evaluated by measurement of absorbance at 490 and 650 nm using a microplate reader (ELX 800 Bio-Tek Intruments, INC). IC50 values were calculated using GraphPad Prism vs 6.0 (GraphPad Software, Inc, La Jolla, CA, USA). Cell viability was also determined by counting viable and dead cells by Trypan blue staining. Trypan blue positive and negative cells were counted using a Countess^TM automated cell counter (Invitrogen, Carlsbad, CA, USA). Results were expressed in relation to total number of cells counted.

Another data set relates to DU145 cells. Put plainly: Cell viability by MTT assay, DU145. In kind it is cell-based, human. Conditions: DU145, 50 μM. How it is done:
as §3, §2, §4
(Tetrazolium dyes change colour on reduction, which living cells bring about.)

In another data set the test system is PNT2 cells. As to the kind of experiment: Cell viability by MTT assay, PNT2 normal prostate cells. As to conditions: PNT2, 50 μM. The class given is cell-based, human. Here is the method: as §3, §2
as §4, with “In brief, a total of 5000 cells/well were seeded into 12-well plate in a final volume of 1 mL. After treatments, 20 µl MTT solution (5 mg/ml in PBS) was added to the medium and cells were incubated at 37 °C for 4 h. Then, the supernatant was discarded and isopropanol was added to dissolve the formazan crystals. Treatments were carried out in triplicate.” left out

The test system of the next data set is LNCaP cells. Put plainly: Cell viability by MTT assay, LNCaP. In kind it is cell-based, human. As to conditions: 50 μM. How it is done:
as §3, §2
as §4, with “In brief, a total of 5000 cells/well were seeded into 12-well plate in a final volume of 1 mL. After treatments, 20 µl MTT solution (5 mg/ml in PBS) was added to the medium and cells were incubated at 37 °C for 4 h. Then, the supernatant was discarded and isopropanol was added to dissolve the formazan crystals. Treatments were carried out in triplicate.” left out

For the next data set, the system named is RWPE-1 cells. Put plainly: Cell viability by MTT assay, RWPE-1 normal prostate cells. In kind it is cell-based, human. As to conditions: RWPE-1, 50 μM. Here is the method: as §3, §2
as §4, with “In brief, a total of 5000 cells/well were seeded into 12-well plate in a final volume of 1 mL. After treatments, 20 µl MTT solution (5 mg/ml in PBS) was added to the medium and cells were incubated at 37 °C for 4 h. Then, the supernatant was discarded and isopropanol was added to dissolve the formazan crystals. Treatments were carried out in triplicate.” left out

Data set [4] relates to PTN2, RWPE-1, PC3, DU145 and LNCaP prostate cells. As to the kind of experiment: Cell viability by MTT assay, statements for the five cell lines together. As to conditions: 1–100 µM, dose-dependent, 24 hours. In kind it is cell-based, human.
Method: We then study the effect of the compounds on the proliferative capacity of PC-3, DU145 and LNCaP prostate cells. We also used the prostate cell lines PTN2 and RWPE-1 which are derived from a histologically normal adult and therefore are considered as normal prostate cells, for comparison. All the compounds were tested at concentrations ranging from 1 to 100 μM.
(A) Normal (PTN2 and RWPE-1) and cancer (PC3,DU145 and LNCaP) prostate cells were treated with different doses of the compounds for 24 hours and cell viability was monitored by MTT assay. […] Values were normalized with the control and represent the mean ± SD of at least three independent experiments. *p < 0.05 and **p < 0.01 compared to control by the Student’s - test.
Human prostate cancer epithelial PC-3, DU145 and LNCaP and human prostate normal RWPE-1 cells were purchased from American Type Culture Collection (ATCC CRL-1435 CRL-1740 and CRL 11609 respectively) (Rockville, MD, USA). The human prostate normal PNT2 cell line was purchased to ECACC (European Collection of Cell cultures, Salisbury, SP4 0JG, UK). Cells were routinely grown in RPMI 1640 medium supplemented with 100 IU/ml penicillin G sodium, 100 µg/ml streptomycin sulfate, 0.25 µg/ml amphotericin B (Invitrogen, Paisley, UK) and 10% fetal calf serum. Cells were used at passages between 10–20. […]
Cell viability was determined by 3-(4,5-dimethylthiazol-2-yl)-2,5-diphenyltetrazolium bromide (MTT) (Sigma-Aldrich) method. […] The optical density in each well was evaluated by measurement of absorbance at 490 and 650 nm using a microplate reader (ELX 800 Bio-Tek Intruments, INC). IC50 values were calculated using GraphPad Prism vs 6.0 (GraphPad Software, Inc, La Jolla, CA, USA). Cell viability was also determined by counting viable and dead cells by Trypan blue staining. Trypan blue positive and negative cells were counted using a Countess^TM automated cell counter (Invitrogen, Carlsbad, CA, USA). Results were expressed in relation to total number of cells counted.

The structures appear in SMILES notation. Values joined by “and” are separate entries in the source; they are usually repeats but may differ in a detail not shown here. Equal values may be shown once.

As for `c1cc(-c2cnn3cc(-c4ccc(OCCN5CCCCC5)cc4)cnc23)ccn1` [Dorsomorphin, reference compound], the “effect on AMPK activation by compound 8c” value in the data set with AMPK [1] was “blocked AMPK activation by compound 8c both at 1 h and 24 h”.

For `O=C1N(Cc2ccccc2)c2ccc(Cl)cc2C1(F)Cc1ccc(N2CCCC2)cc1` (stereo not shown) [Compound 9b, 1-benzyl-5-chloro-3-fluoro-3-(4-(pyrrolidin-1-yl)benzyl)indolin-2-one], the “AMPK phosphorylation (pAMPK/AMPK)” value in the data set with AMPK [2] is recorded as “slightly increases AMPK phosphorylation in PC-3 cells but not in LNCaP cells”. Moreover, at AMPK [3], the “ACC phosphorylation (pACC/ACC)” value is recorded as “augmented pACC” and the “Thr172 phosphorylation of AMPK (pAMPK/AMPK)” value is on record as “weak AMPK activation”. Besides, in the data set with PC-3 cells, the “inhibitory efficacy on cells viability at 50 μM” value (“inhibitory efficacy” for short) is 27% and 23%. The “inhibitory efficacy” value with DU145 cells was 14% and 17%.

As for `O=C1Nc2ccc(Cl)cc2C1(F)Cc1ccc(N2CCCC2)cc1` (stereo not shown) [Compound 8b, 5-chloro-3-fluoro-3-(4-(pyrrolidin-1-yl)benzyl)indolin-2-one], the “inhibitory efficacy” value in the data set with PNT2 cells is reported as 0%; in the data set on LNCaP cells, 11%; with PC-3 cells, 3%; in the data set on DU145 cells, 14%; in the data set with RWPE-1 cells, 17%. Besides, the “ACC phosphorylation (pACC/ACC)” value at AMPK [3] was “inhibited ACC phosphorylation”. Besides, at AMPK [3], the “Thr172 phosphorylation of AMPK (pAMPK/AMPK)” value is given as “slightly, although significantly, inhibited AMPK phosphorylation”.

Regarding `O=C1Nc2ccccc2C1(F)Cc1ccc[nH]1` (stereo not shown) [Compound 8a, 3-((1H-pyrrol-2-yl)methyl)-3-fluoroindolin-2-one], the melting point was 143 to 146 °C. In addition, at AMPK [3], the “ACC phosphorylation (pACC/ACC)” value was “inhibited ACC phosphorylation” and the “Thr172 phosphorylation of AMPK (pAMPK/AMPK)” value is on record as “slightly, although significantly, inhibited AMPK phosphorylation”.

On to `O=C1N(Cc2ccccc2)c2ccccc2C1(F)Cc1ccc[nH]1` (stereo not shown) [Compound 9a, 3-((1H-pyrrol-2-yl)methyl)-1-benzyl-3-fluoroindolin-2-one], for which, at AMPK [3], the “ACC phosphorylation (pACC/ACC)” value was “inhibited ACC phosphorylation” and the “Thr172 phosphorylation of AMPK (pAMPK/AMPK)” value was “slightly, although significantly, inhibited AMPK phosphorylation”. Further, in data set [4], the “inhibition of cell proliferation” value is “effectively inhibited cell proliferation”.

What is called melting point is the temperature, or range, at which the solid turns liquid.
